Experimental data: US12303556B2, “Peptides for treatment and prevention of diabetes and associated disorders” (UNIVERSITE DE STRASBOURG, priority 2018, dated 2025)
One block for each substance: values may come before it. No end group written: not given here.

Assays:
PKC = PKC kinase activity in human adipocytes; assay type: cell-based; settings: for PKC kinase activity at 25 μg peptide per well: 25 μg per well, 30 minutes, positive control insulin
Method: FIG. 1. PKC kinase activity in human adipocytes induced by peptides from alpha PKC. Primary human adipocytes were cultured overnight without insulin and on the next day, the different conditions were used with for each peptide 25 μg of peptide ECTMVEKKVLALL (SEQ ID NO: 50) or 25 ug of peptide SVEWWAYGLLYEMLA (SEQ ID NO: 51) was added to each well and incubated for 30 minutes prior to measuring the PKC activity. Vehicle which is saline solution was the negative control and the positive control used was insulin at […].
FIG. 3. PATAS in vitro dose response to trigger PKC activity in the human adipocytes. PATAS in vitro dose response to trigger PKC activity in the human adipocytes after a 30 minutes incubation of human primary adipocyte with PATAS added to the culture medium. n=5 per group and PATAS quantities are expressed as μg per well.
Two other peptides from PKC alpha, namely ECTMVEKKVLALL (SEQ ID NO: 50) and SVEWWAYGLLYEMLA (SEQ ID NO: 51) have also been tested for their effect on PKC kinase activity.
For PKC kinase activity tests, we used ready to use mature primary human adipocytes originating from omental adipose tissue were purchased from Zenbio in either a 96-well or a 6-well plate format (Catalog #: OA-1096-3 or OA-1006-3). The PKC kinase activity Assay kit (Catalog #: 139437) and procedures were used according to manufacturer's protocol.

[1] = system: DIO glucose intolerant male mice; assay: Glucose tolerance test (ipGTT) in DIO glucose intolerant male mice; assay type: in vivo; settings: single dose 25 micrograms per mouse, ipGTT at day 6, high fat/high glucose diet
Method: (FIG. 5A) Glucose tolerance: Mice were injected with either vehicle (saline solution), or vehicle+PATAD 417 or vehicle+ADPIF (CPC peptide A-MRO) at day 0. 6 days later (D6) the mice were fasted for 4 hours and at 0 minute received a […] glucose injection to perform the ipGTT. Glucose levels were measured from tail blood every 30 minutes. Besides the control mice which were fed on chow diet (CTL Chow diet), all the other mice were fed on a high fat/high glucose diet.
Mice were injected with a single dose (25 micrograms per mouse) of either scramble peptide or PATAD or ADPIF/PATAS. These are results obtained from series of glucose tolerance test (ipGTT) in DIO glucose intolerant male mice (FIGS. 5A and B).
At day 0: all mice were fasted for 4 hours in the morning. At 1:00 p.m., control mice received one injection of (body weight in grams)×10 […] of 22% glucose solution ([…] injection). Treated mice were injected with either 25 ug (2.5 uL of mother solution) of tested peptide dissolved in (body weight in grams)×10 of the 22% glucose solution. Blood glucose levels were measured from tail vein blood at every 30 minutes intervals and plotted to determine the effect of the different treatments on the area under the curve.

[2] = system: primary human mature adipocytes; assay: Glucose uptake assay in human mature adipocytes (2-DG, Abcam kit); assay type: cell-based; settings: 30 minutes with 2-DG, without insulin, 2.5 μL of peptide at 10 μg/μL in 200 μL; N=8; compared with insulin
Method: FIG. 4: Glucose uptake in human primary mature adipocyte. N=8 per group.
Human primary preadipocyte were cultured in a 96-well plate and differentiated in mature human adipocytes. After 3 weeks of culture post adipogenesis, the adipocytes were incubated in culture medium without insulin for 2 hours. Following these 2 hours of insulin fasting, the media were changed back wither either medium without insulin (−INS) or medium with insulin (+INS) or medium with ADPIF (PATAS) for 30 minutes together with 2-DG, a glucose analogue used to determine glucose uptake in the Abcam kit. Following the manufacturer's protocol, we then measured the glucose uptake in 8 wells per condition and calculated the mean that was then plotted in the histogram with the standard error of the mean for the error bars shown in […] FIG. 4.
Human white visceral preadipocytes (Catalog #: C-12732; PromoCell) were purchased. The preadipocytes were seeded according to manufacturer's protocol and cultured in the Preadipocyte growth medium (Catalog #: C-27410; PromoCell) to confluence. Adipogenic differentiation was induced by changing the medium to the Preadipocyte Differentiation Medium (Catalog #: C-27436; PromoCell) for 2 days. After the differentiation phase, the medium was finally changed to the Adipocyte Nutrition medium (Catalog #: C-27438; PromoCell). […]

db/db male mice = assay: ipGTT in db/db (BKS) diabetic mice; assay type: in vivo; settings: 2 mg/kg BW subcutaneous, ipGTT day 4 post-injection, 6-week-old db/db mice on chow diet
Method: (FIG. 6A) Blood glucose excursion curve during ipGTT on day 4 post-PATAS subcutaneous injection (2 mg/kg BW PATAS dosing) in 6-week-old db/db male mice on chow diet Post 8 hours fasting. Glucose bolus (2 g/kg body weight) administered […] at T=Omin and the associated AUC histogram (n=10 mice per group Significance was set at *p-value≤0.05, **p-value≤0.01).
PATAS/ADPIF's activity was tested in db/db on the BKS genetic background, diabetic mouse models. […] The mice received a weekly injection of PATAS/ADPIF or vehicle for another 3 weeks followed by another 4 weeks without any treatment while being constantly monitored. […]
At day 0: all mice were fasted for 4 hours in the morning. […] Blood glucose levels were measured from tail vein blood at every 30 minutes intervals and plotted to determine the effect of the different treatments on the area under the curve.

FATP2 = assay: FATP isoform expression in subcutaneous white adipose tissue of db/db mice; assay type: in vivo; settings: 4 weekly PATAS injections then 4 weeks without treatment, n=6, GAPDH reference, vs control mice
Method: (FIG. 6B) Following 4 weekly PATAS injections, and another 4 weeks without treatment, db/db mice sWAT. Normalized expression levels for the six FATP isoforms (FATP 1-6) in subcutaneous white adipose tissue (sWAT) were determined. n=6 per group with GAPDH as reference gene.
PATAS/ADPIF's activity was tested in db/db on the BKS genetic background, diabetic mouse models. […] The mice received a weekly injection of PATAS/ADPIF or vehicle for another 3 weeks followed by another 4 weeks without any treatment while being constantly monitored.
Total RNA was prepared from the different tissues and cells using a RiboPure™ kit (Catalog #: AM1924; Ambion) followed by a DNAse treatment with the TURBO DNA-free™ (Catalog #: AM 1907; Ambion). RNA integrity was assessed by gel electrophoresis and RNA concentration by Eppendorf Biophotometer Plus with the Hellma® Tray Cell (Catalog #: 105.810-uvs; Hellma). Reverse transcription of 1 μg total RNA to cDNA was performed using the BioRadiScript™ cDNA synthesis kit (Catalog #: 170-8891; BioRad). Real-time quantitative polymerase chain reaction amplification was performed in a BioRad CFX96 TM Real-Time System using the iQ™ SYBR® Green Supermix (Catalog #: 170-8886; BioRAd) and primer sets optimized for tested targets for SYBR Green-based real-time PCR for the real-time PCR. […]

Bbs10-/- mice = assay: ipGTT in Bbs10-/- mice (Bardet Biedl syndrome model); assay type: in vivo; settings: 2 mg/kg body weight subcutaneous, 3 days post-injection
Excerpt: FIGS. 7A-7B. PATAS is effective in improving glucose intolerance in a genetic mouse model for a rare disease associated with obesity and type 2 diabetes, the Bardet Biedl syndrome (BBS). BBS mice were on chow diet fed ad libitum. n=4 mice with a cross-over experimental set-up with ipGTT performed before injection and 3 days post-injection. Knockout mouse model for the BBS10 gene (Bbs10^−/−) were generated and spontaneously became obese as described in literature.
Knockout mouse model for the BBS10 gene (Bbs10^−/−) were generated and spontaneously became obese as described in literature.
For the obese mouse model with overt type 2 diabetes mouse, the BKS (D)-Leprdb/J, Stock No: 010803 (were purchased from the Jax Labs. Bbs10 knockout mice were generated by Institute Mouse Clinic (ICS) in Strasbourg and have been previously described in literature. All mice were on a C57/BL6 genetic background. All animals were housed in a temperature and humidity-controlled facility, with a 12 h-light/12 h-dark cycle. The BKS (D)-Leprdb/J mice were fed with chow diet (LM-485; Harlan Teklad Premier Laboratory Diets) whereas the Bbs knockout mice were fed with […] and tap water ad libitum. For ipGTT and ipITT, mice were fasted for 6 hours before start of experiment. Insulin 0.75 U/kg was injected i.v. via the tail vein. Blood glucose and samples were collected from the tail. […]

glycated albumin = assay: Glycated albumin in plasma in the STAM mice model (ELISA); assay type: in vivo; settings: 5 weekly subcutaneous injections of 25 ug per mouse, 6 mice per group, vs vehicle
Excerpt: FIG. 8. Effect of ADPIF on glycated albumin in plasma in the STAM mice model. Plasma of the treated mice from the Japanese STAMT model were used to measure circulating glycated albumin levels using a commercially available kit. The results are presented in this figure as the mean value of 6 mice per group presented with the standard error of the mean for the error bars.
Glycated albumin is a well-recognized and robust parameter to determine episodes of hyperglycemia in vivo. We therefore used the plasma from the STAMT mice that were treated for 5 weeks with weekly ADPIF/PATAS's injections at 25 ug each compared to control groups which were injected with saline.
For the non-obese STAM mouse model study, C57BL/6 mice (14-day-pregnant female) were obtained from Japan SLC, Inc. (Japan). All animals used in the study were housed and cared for in accordance with the Japanese Pharmacological Society Guidelines for Animal Use. The animals were maintained in a SPF facility under controlled conditions of temperature (23±2° C.), humidity (45±10%), lighting (12-hour artificial light and dark cycles; light from 8:00 to 20:00) and air exchange. The animals were housed in TPX cages (CLEA Japan) with a maximum of 3 mice per cage. Sterilized Paper-Clean (Japan SLC) was used for bedding and replaced once a week. […]

PKC kinase activity at 25 μg peptide per well (PKC): able to increase PKC kinase activity
Substance: ECTMVEKKVLALL (hydrocarbon staple; segment of kinase domain of alphaPKC) [Peptide from PKC alpha with M and A carrying the stapling]

PKC kinase activity at 25 μg peptide per well (PKC): able to increase PKC kinase activity
Substance: SVEWWAYGLLYEMLA (staple (positions not given here); not fully specified; also: hydrocarbon staple, positions not given here) [Peptide from PKC alpha with A and M carrying the stapling]

Substance: VE CTM-[2-(4-pentenyl) alanine]-EK RVL A-[2-(4-pentenyl) alanine]-L DKP PFL TQL HS [PATAD, reference compound]
area under the curve (AUC) of glucose tolerance test [1]: drop in the AUC

Substance: VECTTREKEVLASLDKAAFLTQLHS (staple (positions not given here); not fully specified (bridges); also: hydrocarbon staple via alkenyl Arg and Ser, positions not given here) [ADPIF/PATAS, Stapled peptide wherein R and S carry the stapling, being preferably 2-(7-octenyl)arginine and 2-(4-pentenyl)serine]
glucose uptake (glucose absorption) [2]: as effective as Insulin
PKC activity, dose response (PKC; 30 minutes incubation, PATAS quantities in μg per well, n=5): increasing PKC activity with increasing ADPIF/PATAS quantity
area under the curve (AUC) of glucose tolerance test [1]: more effective than PATAD to reduce the AUC
glucose intolerance (ipGTT) [1]: more active than PATAD peptide
glucose intolerance / hyperglycemia (ipGTT) (db/db male mice): able to prevent hyperglycemia
glucose intolerance / hyperglycemia (ipGTT) (db/db male mice; listed as PATAS/ADPIF): significant improvement of the glucose intolerance
Fatp2 expression levels in adipose tissue (sWAT) (FATP2): able to decrease the expression of FATP2
Fatp2 expression levels in adipose tissue (sWAT) (FATP2; listed as PATAS): specific and significant drop in Fatp2 expression levels
glucose tolerance (ipGTT) (Bbs10-/- mice): improved glucose tolerance
ipGTT area under the curve (AUC) (Bbs10-/- mice; before injection ~30000, n=4): ~16000 mg·min/dL
glycated albumin levels in plasma (glycated albumin): significant drop in glycated albumin
glycated albumin levels in plasma (glycated albumin; listed as ADPIF): significant drop in glycated albumin levels
